Source: US20170368120A1, “Use of compositions of water/alcohol extracts of Antrodia cinnamomea cut-log wood cultivated fruiting body and solid-state cultivated mycelium as auxiliaries for anti-cancer agents” (Taiwan Leader Biotech Corp, priority 2016, published 2017)

Legend:
[1] = test system: MKN45 gastric cancer cells; experiment: Gastric tumor growth in MKN45 tumor-bearing nude mice; assay type: in vivo; conditions: 5-FU injection
Description: In this example, the effects of the A. cinnamomea composition of solid-state cultivated mycelium water/alcohol extracts and cut-log wood cultivated fruiting body water/alcohol extracts on gastric tumor growth were further evaluated in an animal model. The test A. cinnamomea compositions included 5% FB/95% SC, 10% FB/90% SC, 20% FB/80% SC, and 40% FB/60% SC, respectively. The animal used in the experiment is an immune deficient mouse (nude mice) implanted MKN45 gastric cancer cells. 10 days after the cancer cell implantation, the animals were orally given the tested A. cinnamomea compositions (300 mg/kg/day) by oral gavage for 21 days. The treated animals were scarified. The tumor was isolated and weighted, as the key indicator for assessing the inhibition of tumor growth.

[2] = test system: Human gastric cancer MKN-45 cells; experiment: Auxiliary effect on 5-FU in MKN-45 tumor-bearing nude mice; assay type: in vivo, Balb/c nu/nu mice; conditions: 5-FU alone 25 mg/kg ip three times a week
Procedure: In this example, the auxiliary effect of the A. cinnamomea composition on the anti-tumor agent 5-FU was confirmed in an animal model. Balb/c nu/nu mice of six-week old, purchased from the National Laboratory Animal Center, were used in the test. The 5-FU (25 mg/kg, ip) treated group was used as positive group, with drug administration frequency of three times a week. The A. cinnamomea composition (L) of solid-state cultivated mycelium water/alcohol extract and cut-log wood cultivated fruiting body water/alcohol extract was orally administered to mice once a day with following dosages: 1× dose of 680 mg/kg, 0.5× dose of 340 mg/kg, 0.25× dose of 170 mg/kg and 0.125× dose of 85 mg/kg. If the mice had been injected with 5-FU, the L was orally treated four hours after the application of 5-FU. Human gastric cancer MKN-45 cells (3×10^6) were implanted into immune deficient nude mice, and the drug administration was started when the tumor size reached to 100˜200 mm^3. The tested animal groups included the control, 5-FU, 5FU+L, 5-FU+0.5L, 5-FU+0.25L and 5-FU+0.125L groups, with 8 mice in each group.

[3] = test system: CFU-GM in bone marrow; experiment: CFU-GM colony test in bone marrow of 5-FU treated mice; assay type: in vivo, C57BL/6 mice; conditions: 5-FU alone 200 mg/kg ip at first day; marrow at day 11
Procedure: (§1) The effect of the A. cinnamomea composition (L) on recovering the blood cell reducing caused by the application of chemotherapy drug 5-FU was evaluated in the colony test of CFU-GM in bone marrow. C57BL/6 mice of eight-week old, purchased from the National Laboratory Animal Center, were used in the test. The tested animal groups included the control, 5-FU, 5FU+L, 5-FU+0.5L, 5-FU+0.25L and 5-FU+Angiotensin II (Aii) groups, with 6 mice in each group. After the intraperitoneal injection of 5-FU (200 mg/kg) at first day, the test drug A. cinnamomea composition (L) was orally administered to the animals, or the positive control drug Angiotensin II (Aii, 100 μg/kg) was intraperitoneally injected to the animals at day 4˜10. Dosages of the A. cinnamomea composition (L) were used as follow: 1× dose of 680 mg/kg, 0.5× dose of 340 mg/kg and 0.25× dose of 170 mg/kg. Whole blood was collected from cheek before sacrificing the animals at day 11, and the Complete Blood Count (CBC) was performed to record the number of blood cells, including white blood cells, red blood cells, lymphocytes and neutrophils in peripheral blood. The femur was removed from the sacrificed mouse at day 11 of the experiment. The bone marrow cells were collected for the cultivation of CFU-GM. Cells was cultured for 7 days, and the number of CFU-GM colonies was counted.

[4] = test system: blood cells in peripheral blood; experiment: Complete Blood Count in 5-FU treated mice; assay type: in vivo, C57BL/6 mice; conditions: 5-FU alone 200 mg/kg ip, compared to control
Procedure: as §1

CFU-GM colony number [3]: 1,869 colonies/10^6 marrow cells
number of lymphocytes [4]: significantly reduced
number of neutrophils [4]: significantly reduced
number of red blood cells [4]: significantly reduced
number of white blood cells [4]: significantly reduced
Structure (SMILES): O=c1[nH]cc(F)c(=O)[nH]1 [5-FU, 5-fluorouracil]
tumor weight [1]: significant decrease in tumor weight
tumor weight [2]: 0.85 g
